Like-named read-outs stand apart in the source and are kept apart here.
Target: BCL6 (Homo sapiens (Human), UniProt P41182)
Assay: Immunofluorescence high content imaging of BCL6 degradation in T47D cells
Type: cell-based
Details: for DC50: class symbols A-D, read-out: EC50 (nM)*
Procedure, shortened: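 T47D cells were treated for 3 days at 37 °C with 11-point 3-fold dilutions of bifunctional degrader (final top 0.1 or 1 μM). BCL6 was detected by immunofluorescence after PFA fixation, with Hoechst and cell mask counterstains, and imaged at 10×, 4 fields/well.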

Structure (SMILES)	Dmax (T47D cells)	IC50 (T47D cells)	also measured
CNC(=O)COc1cc2cc(Nc3nc(N4CCC(OCCOCCOc5cc(-c6scnc6C)ccc5CNC(=O)[C@@H]5C[C@@H](O)CN5C(=O)C(c5cc(C)no5)C(C)C)CC4)ncc3Cl)ccc2n(C)c1=O (stereo partly drawn) [compound 53, (2S,4R)-N-(2-(2-(2-((1-(5-chloro-4-((1-methyl-3-(2-(methylamino)-2-oxoethoxy)-2-oxo-1,2-dihydroquinolin-6-yl)amino)pyrimidin-2-yl)piperidin-4-yl)oxy)ethoxy)ethoxy)-4-(4-methylthiazol-5-yl)benzyl)-4-hydroxy-1-(3-methyl-2-(3-methylisoxazol-5-yl)butanoyl)pyrrolidine-2-carboxamide]	–	–	DC50: > 100 nM
CN1CC[C@H](Oc2cc3cc(Nc4nc(N5CCC(CN6CCN(c7ccc8c(c7)C(=O)N(C7CCC(=O)NC7=O)C8=O)CC6)CC5)ncc4Cl)ccc3n(C)c2=O)C1=O (stereo partly drawn) [compound 259, 5-(4-((1-(5-chloro-4-((1-methyl-3-(((S)-1-methyl-2-oxopyrrolidin-3-yl)oxy)-2-oxo-1,2-dihydroquinolin-6-yl)amino)pyrimidin-2-yl)piperidin-4-yl)methyl)piperazin-1-yl)-2-(2,6-dioxopiperidin-3-yl)isoindoline-1,3-dione]	–	–	IC50: ≥ 100 nM; Dmax (T47D): < 50%
CNC(=O)COc1cc2cc(Nc3nc(N4CCC(OCCOCCOc5ccc6c(c5)C(=O)N(C5CCC(=O)NC5=O)C6=O)CC4)ncc3Cl)ccc2n(C)c1=O (centres unmarked) [compound 63, 2-((6-((5-chloro-2-(4-(2-(2-((2-(2,6-dioxopiperidin-3-yl)-1,3-dioxoisoindolin-5-yl)oxy)ethoxy)ethoxy)piperidin-1-yl)pyrimidin-4-yl)amino)-1-methyl-2-oxo-1,2-dihydroquinolin-3-yl)oxy)-N-methylacetamide]	–	–	DC50: 10 to 50 nM
CNC(=O)COc1cc2cc(Nc3nc(N4CCC(CN5CCC(c6coc(C(=O)NC7CCC(=O)NC7=O)c6)CC5)CC4)ncc3Cl)ccc2n(C)c1=O (centres unmarked) [compound 286, 4-[1-({1-[5-chloro-4-({1-methyl-3-[(methylcarbamoyl)methoxy]-2-oxo-1,2-dihydroquinolin-6-yl}amino)pyrimidin-2-yl]piperidin-4-yl}methyl)piperidin-4-yl]-N-(2,6-dioxopiperidin-3-yl)furan-2-carboxamide]	–	–	IC50: 50 to 100 nM; Dmax (T47D): < 50%
CNC(=O)COc1cc2cc(Nc3nc(N4CCN(CCCN5CCN(c6ccc7c(c6)CN(C6CCC(=O)NC6=O)C7=O)CC5)CC4)ncc3Cl)ccc2n(C)c1=O (centres unmarked) [compound 103, 2-((6-((5-chloro-2-(4-(3-(4-(2-(2,6-dioxopiperidin-3-yl)-1-oxoisoindolin-5-yl)piperazin-1-yl)propyl)piperazin-1-yl)pyrimidin-4-yl)amino)-1-methyl-2-oxo-1,2-dihydroquinolin-3-yl)oxy)-N-methylacetamide]	–	–	DC50: 10 to 50 nM
CNC(=O)COc1cc2cc(Nc3nc(N4CCN(C)CC4)ncc3Cl)ccc2n(CCCOc2ccc3c(c2)C(=O)N(C2CCC(=O)NC2=O)C3=O)c1=O (centres unmarked) [compound 244, 2-((6-((5-chloro-2-(4-methylpiperazin-1-yl)pyrimidin-4-yl)amino)-1-(3-((2-(2,6-dioxopiperidin-3-yl)-1,3-dioxoisoindolin-5-yl)oxy)propyl)-2-oxo-1,2-dihydroquinolin-3-yl)oxy)-N-methylacetamide]	–	–	IC50: ≥ 100 nM; Dmax (T47D): ≥ 70%
CNC(=O)COc1cc2cc(Nc3nc(N4CCC(OCCOCCOCCOCCOCCOc5ccc6c(c5)C(=O)N(C5CCC(=O)NC5=O)C6=O)CC4)ncc3Cl)ccc2n(C)c1=O (centres unmarked) [compound 64, 2-((6-((5-chloro-2-(4-((14-((2-(2,6-dioxopiperidin-3-yl)-1,3-dioxoisoindolin-5-yl)oxy)-3,6,9,12-tetraoxatetradecyl)oxy)piperidin-1-yl)pyrimidin-4-yl)amino)-1-methyl-2-oxo-1,2-dihydroquinolin-3-yl)oxy)-N-methylacetamide]	–	–	DC50: > 100 nM
CNC(=O)COc1cc2cc(Nc3nc(N4CCCC(OC5CCN(c6ccc7c(c6)C(=O)N(C6CCC(=O)NC6=O)C7=O)CC5)CC4)ncc3Cl)ccc2n(C)c1=O (centres unmarked) [compound 241, 2-((6-((5-chloro-2-(4-((1-(2-(2,6-dioxopiperidin-3-yl)-1,3-dioxoisoindolin-5-yl)piperidin-4-yl)oxy)azepan-1-yl)pyrimidin-4-yl)amino)-1-methyl-2-oxo-1,2-dihydroquinolin-3-yl)oxy)-N-methylacetamide]	–	–	IC50: 10 to 50 nM; Dmax (T47D): < 50%
CNC(=O)COc1cc2cc(Nc3nc(N4CCC(Cc5cn(CCOCCOCCOc6ccc7c(c6)C(=O)N(C6CCC(=O)NC6=O)C7=O)nn5)CC4)ncc3Cl)ccc2n(C)c1=O (centres unmarked) [compound 130, 2-((6-((5-chloro-2-(4-((1-(2-(2-(2-((2-(2,6-dioxopiperidin-3-yl)-1,3-dioxoisoindolin-5-yl)oxy)ethoxy)ethoxy)ethyl)-1H-1,2,3-triazol-4-yl)methyl)piperidin-1-yl)pyrimidin-4-yl)amino)-1-methyl-2-oxo-1,2-dihydroquinolin-3-yl)oxy)-N-methylacetamide]	–	–	DC50: > 100 nM

Second part, led by results:

Dmax (T47D cells)	IC50 (T47D cells)	Structure (SMILES)	also measured
50 to 70%	< 10 nM	CNC(=O)COc1cc2cc(Nc3nc(N4CCN(CCN5CCN(c6cccc7c6C(=O)N(C6CCC(=O)NC6=O)C7=O)CC5)CC4)ncc3Cl)ccc2n(C)c1=O (centres unmarked) [compound 321, 2-{[6-({5-chloro-2-[4-(2-{4-[2-(2,6-dioxopiperidin-3-yl)-1,3-dioxo-2,3-dihydro-1H-isoindol-4-yl]piperazin-1-yl}ethyl)piperazin-1-yl]pyrimidin-4-yl}amino)-1-methyl-2-oxo-1,2-dihydroquinolin-3-yl]oxy}-N-methylacetamide]	–
≥ 70%	10 to 50 nM	CNC(=O)COc1cc2cc(Nc3nc(N4CCC(OC5CC6(CCN(c7ccc(C(=O)NC8CCC(=O)NC8=O)c(OC)c7)CC6)C5)CC4)ncc3Cl)ccc2n(C(C)C)c1=O (centres unmarked) [compound 432, 4-[2-({1-[5-chloro-4-({3-[(methylcarbamoyl)methoxy]-2-oxo-1-(propan-2-yl)-1,2-dihydroquinolin-6-yl}amino)pyrimidin-2-yl]piperidin-4-yl}oxy)-7-azaspiro[3.5]nonan-7-yl]-N-(2,6-dioxopiperidin-3-yl)-2-methoxybenzamide]	–
50 to 70%	< 10 nM	CNC(=O)COc1cc2cc(Nc3nc(N4CCC(CCN5CCN(c6ccc7c(c6)C(=O)N(C6CCC(=O)NC6=O)C7=O)CC5)CC4)ncc3Cl)ccc2n(C)c1=O (centres unmarked) [compound 353, 2-{[6-({5-chloro-2-[4-(2-(4-[2-(2,6-dioxopiperidin-3-yl)-1,3-dioxo-2,3-dihydro-1H-isoindol-5-yl]piperazin-1-yl}ethyl)piperidin-1-yl]pyrimidin-4-yl}amino)-1-methyl-2-oxo-1,2-dihydroquinolin-3-yl]oxy}-N-methylacetamide]	–
–	≥ 100 nM	CNC(=O)COc1cc2cc(Nc3nc(N4CCO[C@H](CCOc5ccc6c(c5)C(=O)N(C5CCC(=O)NC5=O)C6=O)C4)ncc3Cl)ccc2n(C(C)C)c1=O (stereo partly drawn) [compound 379, 2-{[6-({5-chloro-2-[(2R)-2-(2-{[2-(2,6-dioxopiperidin-3-yl)-1,3-dioxo-2,3-dihydro-1H-isoindol-5-yl]oxy}ethyl)morpholin-4-yl]pyrimidin-4-yl}amino)-2-oxo-1-(propan-2-yl)-1,2-dihydroquinolin-3-yl]oxy}-N-methylacetamide]	–
≥ 70%	10 to 50 nM	CNC(=O)COc1cc2cc(Nc3nc(N4CCC(CN5CC6(CCN(c7ccc(C(=O)NC8CCC(=O)NC8=O)c(OC)c7)CC6)C5)CC4)ncc3Cl)ccc2n(C(C)C)c1=O (centres unmarked) [compound 438, 4-[2-({1-[5-chloro-4-({3-[(methylcarbamoyl)methoxy]-2-oxo-1-(propan-2-yl)-1,2-dihydroquinolin-6-yl}amino)pyrimidin-2-yl]piperidin-4-yl}methyl)-2,7-diazaspiro[3.5]nonan-7-yl]-N-(2,6-dioxopiperidin-3-yl)-2-methoxybenzamide]	–
–	≥ 100 nM	CNC(=O)COc1cc2cc(Nc3nc(N4CCN(CC5CCN(c6ccc(C(=O)NC7CCC(=O)NC7=O)[n+]([O-])c6)CC5)CC4)ncc3Cl)ccc2n(C)c1=O (centres unmarked) [compound 377, 5-[4-({4-[5-chloro-4-({1-methyl-3-[(methylcarbamoyl)methoxy]-2-oxo-1,2-dihydroquinolin-6-yl}amino)pyrimidin-2-yl]piperazin-1-yl}methyl)piperidin-1-yl]-2-[(2,6-dioxopiperidin-3-yl)carbamoyl]pyridin-1-ium-1-olate]	–
50 to 70%	< 10 nM	CNC(=O)COc1cc2cc(Nc3nc(N4CCN(CC5(F)CCN(c6ccc7c(c6)C(=O)N(C6CCC(=O)NC6=O)C7=O)CC5)CC4)ncc3Cl)ccc2n(C)c1=O (centres unmarked) [compound 339, 2-{[6-({5-chloro-2-[4-({1-[2-(2,6-dioxopiperidin-3-yl)-1,3-dioxo-2,3-dihydro-1H-isoindol-5-yl]-4-fluoropiperidin-4-yl}methyl)piperazin-1-yl]pyrimidin-4-yl}amino)-1-methyl-2-oxo-1,2-dihydroquinolin-3-yl]oxy}-N-methylacetamide]	–
< 50%	< 10 nM	CCn1c(=O)c(OCC(=O)NC)cc2cc(Nc3nc(N4CCC(OCC5CCN(c6ccc7c(c6)C(=O)N(C6CCC(=O)NC6=O)C7=O)CC5)CC4)ncc3Cl)ccc21 (centres unmarked) [compound 329, 2-{[6-({5-chloro-2-[4-({1-[2-(2,6-dioxopiperidin-3-yl)-1,3-dioxo-2,3-dihydro-1H-isoindol-5-yl]piperidin-4-yl}methoxy)piperidin-1-yl]pyrimidin-4-yl}amino)-1-ethyl-2-oxo-1,2-dihydroquinolin-3-yl]oxy}-N-methylacetamide]	–
< 50%	10 to 50 nM	CNC(=O)COc1cc2cc(Nc3nc(N4CCN(CC5CCCN5c5ccc6c(c5)C(=O)N(C5CCC(=O)NC5=O)C6=O)CC4)ncc3Cl)ccc2n(C(C)C)c1=O (centres unmarked) [compound 380, 2-{[6-({5-chloro-2-[4-({1-[2-(2,6-dioxopiperidin-3-yl)-1,3-dioxo-2,3-dihydro-1H-isoindol-5-yl]pyrrolidin-2-yl}methyl)piperazin-1-yl]pyrimidin-4-yl}amino)-2-oxo-1-(propan-2-yl)-1,2-dihydroquinolin-3-yl]oxy}-N-methylacetamide]	–

— US12310975B2, “Modulators of BCL6 proteolysis and associated methods of use” (Arvinas Operations, Inc., priority 2019, dated 2025)
